According to ChEMBL document CHEMBL1145977, “Synthesis and dopamine receptor modulating activity of 3-substituted gamma-lactam peptidomimetics of L-prolyl-L-leucyl-glycinamide” (J Med Chem, 2003):

Tests used:
Type in all cases: functional
Bos taurus = species: Bos taurus; test: Percent enhancement of [3H]NPE binding to bovine striatal membranes at 100 nM concentration; details: Striatum, Membrane
[1] = target: T1, Dopamine receptor (Rattus norvegicus) (UniProt P25115+P19020+P30729+P18901+P61169); test: Dopamine receptor modulating activity of compound was evaluated by rat nigrostriatal 6-hydroxydopamine lesion rotation model at dose of 1 ug/kg given intraperitoneally
[2] = target: T1, Dopamine receptor (Rattus norvegicus); test: Dopamine receptor modulating activity of compound was evaluated by rat nigrostriatal 6-hydroxydopamine lesion rotation model at dose of 0.1 ug/kg given intraperitoneally

Compound	Enhancement (Bos taurus) [%]	other results
CCCC[C@@]1(NC(=O)[C@@H]2CCCN2)CCN(CC(N)=O)C1=O	89	
NC(=O)[C@H]1CS[C@@H]2C[C@@](Cc3ccccc3)(NC(=O)[C@@H]3CCCN3)C(=O)N12		Enhancement [1]: 30%
NC(=O)CN1CC[C@@H](NC(=O)[C@@H]2CCCN2)C1=O	36	
CCCC[C@@]1(NC(=O)[C@@H]2CCCN2)C[C@H]2SC[C@H](C(N)=O)N2C1=O		Enhancement [2]: 56%
CC(C)C[C@@]1(NC(=O)[C@@H]2CCCN2)C[C@H]2SC[C@H](C(N)=O)N2C1=O		Enhancement [1]: 44%
NC(=O)CN1CC[C@@](Cc2ccccc2)(NC(=O)[C@@H]2CCCN2)C1=O	116	
NC(=O)[C@H]1CS[C@@H]2C[C@@H](NC(=O)[C@@H]3CCCN3)C(=O)N12		Enhancement [2]: 23%
CC(C)C[C@@]1(NC(=O)[C@@H]2CCCN2)CCN(CC(N)=O)C1=O	59	
